Measurements published in US12227512B2, “Benzimidazoles and methods of using same” (priority 2019, dated 2025).
Where two headings read alike, the source gives them in different places.

Key:
[1] = system: Gli-luciferace activity in the SUFU-KO-light cells; experiment: SUFU-KO-Light assay, inhibition of Gli-luciferase activity; type: cell-based; settings: read-out: IC50 (μM) SUFU-KO-Light; inhibition of Gli-luciferase activity; listed as Isis-11 (−isomer/E2)
Excerpt: IC50 SUFO-KO-Light values are for inhibition of Gli-luciferace activity in the SUFU-KO-light cells developed by the James Chen laboratory at Stanford University.

SARS-CoV-2 [2] = settings: infected Vero cells, 24 hours post-infection, Western blot
[3] = Mouse PK evaluation, plasma, IV; settings: CD-1 mice; for AUC(0-inf): AUCInf; for MRT inf: MRTInf_obs
[4] = Maximum tolerated dose (MTD) in mice; type: in vivo; settings: AG129 mice; for Alive/total / MDD ± SD (average day of death) / Mean wt. change (g) ± SD: q 3 d × 3; for Alive/total / MDD ± SD (average day of death): 14 days; for Mean wt. change (g) ± SD: weight on 0 and 2 days post-initial treatment
Procedure: Without wishing to be bound by theory, the purpose of this study is to further identify the MTD and dosing frequency that can be used for Isis-11 (E2) in future antiviral efficacy studies.
Animals: 21 AG129 mice produced by an in-house colony were used. Groups of animals were assigned by weight to experimental groups and individually marked with ear tags.
Test agent: Isis-11 (E2) was provided by University of Utah for testing in the mouse model.
[…] Additional treatments were administered at various time points. Mice were monitored for mortality until 14 days post-initial treatment (dpi). Individual weights were measured daily 0-10 dpi and on 14 dpi.
Statistical analysis: Survival data were analyzed using the Wilcoxon log-rank survival analysis and all other statistical analyses were done using one-way ANOVA using a Bonferroni group comparison (Prism 5, GraphPad Software, Inc.).

[5] = system: SUFU-KO-Light cells expressing Gli-luciferase; experiment: Dose-effect curves, dual-Glo luciferase, Compusyn; type: cell-based
[6] = system: Zika virus, Dengue, Yellow Fever Virus, West Nile Virus; experiment: organism not typed; type: cell-based; settings: read-out: EC50, viral replication
[7] = system: Rift Valley Fever Virus (RVFV); experiment: microbe, parasite or virus in culture; type: cell-based
[8] = system: Raji (Burkitt Lymphoma cell line); experiment: Raji cell viability / proliferation; settings: Homo sapiens, read-out: IC50, Raji cell proliferation
[9] = system: Puerto Rica strain of infectious Zika virus; experiment: microbe, parasite or virus in culture; type: cell-based; settings: Vero
SARS-CoV-2 [10] = experiment: microbe, parasite or virus in culture; settings: Severe acute respiratory syndrome coronavirus 2, Vero C1008, read-out: EC50, inhibition of cell death
Shh-NPD (Hh subcategory) = experiment: MTT assay, Medulloblastoma cell line; type: cell-based
Procedure: (§1) The EC50 values shown below in Table 9 were determined for Isis-11 (E2) by MTT assay in the Medulloblastoma cell lines as indicated.

UW-426 (Hh subcategory) = experiment: MTT assay, Medulloblastoma cell line; type: cell-based; settings: UW426
Procedure: as §1

MB002 cells = experiment: MTT assay, cell proliferation; type: cell-based
[11] = CD-1, mouse, in vivo, iv, 3 mg/kg, Mean, 3 mg/kg IV
[12] = CD-1, mouse, in vivo, iv, 3 mg/kg, Mouse 1, 3 mg/kg IV
[13] = CD-1, mouse, in vivo, iv, 3 mg/kg, Mouse 2, 3 mg/kg IV

SMILES: CN(C)CCCn1c(N)nc2ccc3c(c21)CC(CN(C)C)O3 (single isomer, unassigned) [Compound E2]
- IC50 [1]: 0.1 µM
- SARS-CoV-2 nucleocapsid protein levels (SARS-CoV-2 [2]): dose-dependent reduction of viral protein
- AUC_%Extrap_obs, Mean ([3]; 3 mg/kg IV): 22.3%
- AUC_%Extrap_obs, Mouse 1 ([3]; 3 mg/kg IV): 10.4%
- AUC_%Extrap_obs, Mouse 2 ([3]; 3 mg/kg IV): 18.9%
- AUC_%Extrap_obs, Mouse 3 ([3]; 3 mg/kg IV): 37.6%
- AUClast, Mean ([3]; 3 mg/kg IV): 439 ng·h/mL
- AUClast, Mouse 1 ([3]; 3 mg/kg IV): 472 ng·h/mL
- AUClast, Mouse 2 ([3]; 3 mg/kg IV): 360 ng·h/mL
- AUClast, Mouse 3 ([3]; 3 mg/kg IV): 487 ng·h/mL
- AUClast/D, Mean ([3]; 3 mg/kg IV): 146
- AUClast/D, Mouse 1 ([3]; 3 mg/kg IV): 157
- AUClast/D, Mouse 2 ([3]; 3 mg/kg IV): 120
- AUClast/D, Mouse 3 ([3]; 3 mg/kg IV): 162
- C0, Mean ([3]; 3 mg/kg IV): 794 ng/mL
- C0, Mouse 1 ([3]; 3 mg/kg IV): 861 ng/mL
- C0, Mouse 2 ([3]; 3 mg/kg IV): 801 ng/mL
- C0, Mouse 3 ([3]; 3 mg/kg IV): 720 ng/mL
- Cl_obs, Mean ([3]; 3 mg/kg IV): 91 mL/min/kg
- Cl_obs, Mouse 1 ([3]; 3 mg/kg IV): 95.0 mL/min/kg
- Cl_obs, Mouse 2 ([3]; 3 mg/kg IV): 113 mL/min/kg
- Cl_obs, Mouse 3 ([3]; 3 mg/kg IV): 64.1 mL/min/kg
- Vss_obs, Mean ([3]; 3 mg/kg IV): 71.1 L/kg
- Vss_obs, Mouse 1 ([3]; 3 mg/kg IV): 43.7 L/kg
- Vss_obs, Mouse 2 ([3]; 3 mg/kg IV): 82.5 L/kg
- Vss_obs, Mouse 3 ([3]; 3 mg/kg IV): 87.0 L/kg
- Plasma concentration, Mean ([3]; 3 mg/kg IV, 0.083 h): 457 ng/mL
- Plasma concentration, Mouse 1 ([3]; 3 mg/kg IV, 0.083 h): 445 ng/mL
- Plasma concentration, Mouse 2 ([3]; 3 mg/kg IV, 0.083 h): 452 ng/mL
- Plasma concentration, Mouse 3 ([3]; 3 mg/kg IV, 0.083 h): 473 ng/mL
- Plasma concentration, Mean ([3]; 3 mg/kg IV, 0.25 h): 155 ng/mL
- Plasma concentration, Mouse 1 ([3]; 3 mg/kg IV, 0.25 h): 118 ng/mL
- Plasma concentration, Mouse 2 ([3]; 3 mg/kg IV, 0.25 h): 143 ng/mL
- Plasma concentration, Mouse 3 ([3]; 3 mg/kg IV, 0.25 h): 203 ng/mL
- Plasma concentration, Mean ([3]; 3 mg/kg IV, 0.5 h): 98 ng/mL
- Plasma concentration, Mouse 1 ([3]; 3 mg/kg IV, 0.5 h): 158 ng/mL
- Plasma concentration, Mouse 2 ([3]; 3 mg/kg IV, 0.5 h): 60.2 ng/mL
- Plasma concentration, Mouse 3 ([3]; 3 mg/kg IV, 0.5 h): 75.5 ng/mL
- Plasma concentration, Mean ([3]; 3 mg/kg IV, 1 h): 51.1 ng/mL
- Plasma concentration, Mouse 1 ([3]; 3 mg/kg IV, 1 h): 64.0 ng/mL
- Plasma concentration, Mouse 2 ([3]; 3 mg/kg IV, 1 h): 42.7 ng/mL
- Plasma concentration, Mouse 3 ([3]; 3 mg/kg IV, 1 h): 46.5 ng/mL
- Plasma concentration, Mean ([3]; 3 mg/kg IV, 2 h): 27.2 ng/mL
- Plasma concentration, Mouse 1 ([3]; 3 mg/kg IV, 2 h): 31.9 ng/mL
- Plasma concentration, Mouse 2 ([3]; 3 mg/kg IV, 2 h): 26.8 ng/mL
- Plasma concentration, Mouse 3 ([3]; 3 mg/kg IV, 2 h): 22.8 ng/mL
- Plasma concentration, Mean ([3]; 3 mg/kg IV, 4 h): 19.0 ng/mL
- Plasma concentration, Mouse 1 ([3]; 3 mg/kg IV, 4 h): 25.4 ng/mL
- Plasma concentration, Mouse 2 ([3]; 3 mg/kg IV, 4 h): 11.7 ng/mL
- Plasma concentration, Mouse 3 ([3]; 3 mg/kg IV, 4 h): 19.8 ng/mL
- Plasma concentration, Mean ([3]; 3 mg/kg IV, 8 h): 8.9 ng/mL
- Plasma concentration, Mouse 1 ([3]; 3 mg/kg IV, 8 h): 8.79 ng/mL
- Plasma concentration, Mouse 2 ([3]; 3 mg/kg IV, 8 h): 7.76 ng/mL
- Plasma concentration, Mouse 3 ([3]; 3 mg/kg IV, 8 h): 10.2 ng/mL
- Plasma concentration, Mean ([3]; 3 mg/kg IV, 24 h): 6.9 ng/mL
- Plasma concentration, Mouse 1 ([3]; 3 mg/kg IV, 24 h): 4.57 ng/mL
- Plasma concentration, Mouse 2 ([3]; 3 mg/kg IV, 24 h): 4.10 ng/mL
- Plasma concentration, Mouse 3 ([3]; 3 mg/kg IV, 24 h): 12.1 ng/mL
- AUC(0-inf) [3, 11]: 485 ng·h/mL
- AUC(0-inf) [3, 12]: 526 ng·h/mL
- AUC(0-inf) [3, 13]: 444 ng·h/mL
- MRT inf [3, 11]: 9.9 h
- MRT inf [3, 12]: 7.67 h
- MRT inf [3, 13]: 12.2 h
- half-life ([3]; CD-1, mouse, in vivo, iv, 3 mg/kg, T1/2, Mouse 2, 3 mg/kg IV): 14.2 h
- Alive/total ([4]; 1.0 mg/kg/d): 3/3
- MDD ± SD (average day of death) ([4]; 1.0 mg/kg/d): >14.0 ± 0.0 days
- Mean wt. change (g) ± SD ([4]; 1.0 mg/kg/d): -1.2 ± 0.8 g
- tolerability ([4]; 3.2 mg/kg eod or q3d): well-tolerated
- mortality and weight loss ([4]; 3.2 mg/kg i.p.): no mortality or weight loss
- Alive/total ([4]; 3.2 mg/kg/d): 3/3
- MDD ± SD (average day of death) ([4]; 3.2 mg/kg/d): >14.0 ± 0.0 days
- Mean wt. change (g) ± SD ([4]; 3.2 mg/kg/d): -0.1 ± 0.8 g
- mortality (animals succumbing to toxicity) ([4]; 10 mg/kg i.p., eod or q3d): 2 of 5
- body weight ([4]; 10 mg/kg i.p., between 0 and 14 days after initial treatment): some transient weight loss, but an overall weight gain
- mortality ([4]; 32 mg/kg i.p., eod for 4 treatments or q3d for 3 treatments): all succumbed
- body weight ([4]; 32 mg/kg i.p., eod or q3d): weight loss
- tolerability, second study ([4]; 3.2 or 1.0 mg/kg/d once every third day): well-tolerated with no indication of toxicity
- tolerability ([4]; 10 or 32 mg/kg, eod or q3d): toxic
- toxicity, initial study ([4]; administered bid, once a day at total daily doses of 32, 10, or 3.2 mg/kg/d): substantial toxicity
- MTD at 14 days ([4]; mouse, in vivo, ip): 3.2 mg/kg
- EC50 ([5]; read-out: Dose E2): 63.5 nM
- EC50 ([5]; read-out: EC50 as single agent): 60 nM
- EC50 [6]: 290 to 320 nM
- activity relative to BCX4430 against RVFV [7]: 92 fold
- EC50 ([7]; Rift Valley fever virus): 450 nM
- IC50 [8]: 200 nM
- EC50 [9]: 80 nM
- EC50 (SARS-CoV-2 [10]): 142 nM
- EC50 (Shh-NPD (Hh subcategory)): 720 nM
- EC50 (UW-426 (Hh subcategory)): 105 nM
- EC50 (MB002 cells; MB002): 430 nM
- IC50 (MB002 cells; MB002, read-out: Dose E2): 320 nM
